Data as given in patent US9617310B2 (priority 2013, dated 2017).

Experiments:
[1] = tested on: genotype 1a (H77) wild-type transient HCV replicon in Huh-7-derived cells; test: Transient-transfected HCV replicon, genotype 1a wild type; assay type: cell-based; details: Hepatitis C virus; transient-transfected replicon genotype 1a wild type, 72 h; read-out: EC50 1A WT
NS3 genotype 3a protease = biological target: T1, NS3 genotype 3a protease (UniProt Q81258); test: Ki determination, NS3 protease genotype 3a (fluorogenic depsipeptide substrate); assay type: biochemical, hepatitis C virus; details: NS3 protease domain genotype 3a, NS4A peptide
T1 construct: Purified NS3 protease domain (amino acids 1-181) of the genotype 1b and 3a virus were generated as above; fused on or other part: N-terminal hexahistidine tag with an rTEV protease cleavage site (vector p28-N6H-Tev-NS3(181)3)
T1 sequence (Q81258 1033-1663): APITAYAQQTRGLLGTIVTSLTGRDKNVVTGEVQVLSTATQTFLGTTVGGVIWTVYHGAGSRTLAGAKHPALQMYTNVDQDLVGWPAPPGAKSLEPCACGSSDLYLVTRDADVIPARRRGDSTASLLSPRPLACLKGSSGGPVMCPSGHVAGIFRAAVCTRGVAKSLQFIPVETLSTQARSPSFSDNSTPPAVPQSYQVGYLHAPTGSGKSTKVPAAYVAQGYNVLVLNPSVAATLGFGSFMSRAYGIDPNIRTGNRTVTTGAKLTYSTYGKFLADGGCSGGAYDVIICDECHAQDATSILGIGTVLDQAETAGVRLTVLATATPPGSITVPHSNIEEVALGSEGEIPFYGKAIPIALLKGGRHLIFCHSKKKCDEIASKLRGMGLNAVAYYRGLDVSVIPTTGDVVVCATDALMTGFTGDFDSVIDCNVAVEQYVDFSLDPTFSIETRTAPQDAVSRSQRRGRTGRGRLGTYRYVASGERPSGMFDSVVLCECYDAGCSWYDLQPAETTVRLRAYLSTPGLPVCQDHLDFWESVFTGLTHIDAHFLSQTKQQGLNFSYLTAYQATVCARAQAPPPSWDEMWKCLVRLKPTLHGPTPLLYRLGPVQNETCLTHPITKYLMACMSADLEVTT
Outline: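 NS3 protease domain (aa 1-181), 50 pM (1b) or 200 pM (3a), with 20 μM NS4A peptide, pre-incubated 1 h with inhibitor (100 nM–5 pM); 4 μM (1b) or 2 μM (3a) FRET depsipeptide substrate, room temperature, pH-unspecified HEPES buffer with 40% glycerol, 10% DMSO. Steady-state rates at 90–120 min (ex 340/em 490); Morrison fit gave Ki^app, corrected to Ki via substrate/Km.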

[2] = tested on: genotype 1b wild-type transient HCV replicon in Huh-7-derived cells; test: Transient-transfected HCV replicon, genotype 1b wild type; assay type: cell-based; details: Hepatitis C virus; transient-transfected replicon genotype 1b wild type, 72 h; read-out: EC50 1B WT

| Structure (SMILES) | EC50 [1] [nM] | Ki (NS3 genotype 3a protease) [nM] | EC50 [2] [nM] |
| --- | --- | --- | --- |
| COc1ccc2nc3c(nc2c1)O[C@@H]1C[C@@H](C(=O)N[C@]2(C(=O)NS(=O)(=O)C4(C)CC4)C[C@H]2CC(F)F)N(C1)C(=O)[C@H](C(C)(C)C)NC(=O)O[C@@H]1C[C@@H]2C[C@@H]2[C@H]1CCCCC3(F)F [Example 20, (1aS,2aR,6S,9S,11R,23aR,23bS)-6-tert-butyl-N-[(1R,2S)-2-(2,2-difluoroethyl)-1-{[(1-methylcyclopropyl)sulfonyl]carbamoyl}cyclopropyl]-19,19-difluoro-15-methoxy-4,7-dioxo-1a,2,2a,4,5,6,7,10,11,19,20,21,22,23,23a,23b-hexadecahydro-1H,9H-8,11-methanocyclopropa[4′,5′]cyclopenta[1′,2′:18,19][1,10,3,6]dioxadiazacyclononadecino[11,12-b]quinoxaline-9-carboxamide] | 5.2 | 0.07 | 4.1 |
| COc1ccc2cc3c(nc2c1)O[C@@H]1C[C@@H](C(=O)N[C@]2(C(=O)NS(=O)(=O)C4CC4)C[C@H]2C(F)F)N(C1)C(=O)[C@H](C(C)(C)C)NC(=O)O[C@@H]1C[C@@H]2C[C@@H]2[C@H]1CCCCC3 [Example 21, (1aS,2aR,6S,9S,11R,23aR,23bS)-6-tert-butyl-N-[(1R,2R)-1-[(cyclopropylsulfonyl)carbamoyl]-2-(difluoromethyl)cyclopropyl]-15-methoxy-4,7-dioxo-1a,2,2a,4,5,6,7,10,11,19,20,21,22,23,23a,23b-hexadecahydro-1H,9H-8,11-methanocyclopropa[4′,5′]cyclopenta[1′,2′:18,19][1,10,3,6]dioxadiazacyclononadecino[11,12-b]quinoline-9-carboxamide] | 1.5 | 0.1 | 0.61 |
